Like-named read-outs stand apart in the source and are kept apart here.
Legend:
[1] = Pharmacokinetic study in chimps after oral and intravenous co-dosing: plasma levels by LC-MS/MS; assay type: in vivo; details: for Cmax / AUC(0-t): plasma, 50 mg, co-administered 1:1; for AUC(0-t): read-out: AUC(0-24)
Method: (§1) A 1:1 mixture of the two compounds was then prepared containing a final concentration of 1 mg/mL of each compound and the mixture was then sterile filtered through a 0.2-μm filter.
Two chimps (one male and one female) were used in each of the oral and intravenous studies. Animals were fasted overnight prior to administration of compounds. All animals were sedated with ketamine (approximately 10 mg/kg) and/or telazol (approximately 5 mg/kg) prior to dosing. Intravenous administration was achieved by IV infusion of 50 mg of each compound (50 mL total dosing solution) over 30 minutes. Oral administration was achieved by oral gavage of a single 50 mg dose of each compound (50 mL total dosing solution). Blood samples (4.5 mL) were collected from the dosed chimps at various times prior to and after dosing. For intravenous administrations blood samples were collected at 0 min (preinfusion), 15 min, 29.5 min (immediately before the end of the infusion), then 6, 15, 30 and 45 min, and 1, 2, 4, 6, 8, 10, 12 and 24 hr after the infusion is stopped. For oral administrations, blood samples were collected at 0 min (predose), 15 and 30 min, and 1, 1.5, 2, 4, 6, 8, 10 and 12 hr postdose.
Blood samples were placed in tubes containing sodium heparin, mixed and stored on ice until centrifuged. Within 30 minutes of collection, plasma was isolated by centrifuging the blood samples and dividing the resulting plasma (approx. 2 ml) between two 96-deepwell plates. Each plate was sealed and stored at −70° C. until further analysis by LC-MS/MS using an Applied Bio-systems API 4000 mass spectrometer.
(§2) Samples were analyzed by LC-MS/MS using an Applied Bio-systems API 4000 mass spectrometer.

[2] = Pharmacokinetic study in chimps after oral and intravenous co-dosing: unmetabolized compound in urine; assay type: in vivo; details: both sexes, chimpanzee, 50 mg of each compound co-administered, average of chimps, urine collected 24 hours post-dose, read-out: Unmetabolized Compound Found in Urine
Method: as §1
Two chimps (one male and one female) were used in each of the oral and intravenous studies. Animals were fasted overnight prior to administration of compounds. All animals were sedated with ketamine (approximately 10 mg/kg) and/or telazol (approximately 5 mg/kg) prior to dosing. Intravenous administration was achieved by IV infusion of 50 mg of each compound (50 mL total dosing solution) over 30 minutes. Oral administration was achieved by oral gavage of a single 50 mg dose of each compound (50 mL total dosing solution). Blood samples (4.5 mL) were collected from the dosed chimps at various times prior to and after dosing.
Urine was collected for 24 hours post-dose for each test animal and stored on ice. Total volume was measured and an aliquot was stored at −70° C. until further analysis
as §2

[3] = iv, Chimp 1, IV infusion 50 mg of each compound over 30 min
[4] = iv, Chimp 2, IV infusion 50 mg of each compound over 30 min
[5] = po, Chimp 3, PO gavage single 50 mg dose of each compound
[6] = po, Chimp 4, PO gavage single 50 mg dose of each compound
[7] = following either intravenous or oral administration to chimps

| Compound | Cmax [1, 3] | AUC(0-t) [1, 3] | Cmax [1, 4] | AUC(0-t) [1, 4] | Cmax [1, 5] | AUC(0-t) [1, 5] | Cmax [1, 6] | AUC(0-t) [1, 6] | concentration at 24 h ([2]; IV) | concentration at 24 h ([2]; PO) | AUC compared with lacosamide [1, 7] | Cmax compared with lacosamide [1, 7] |
| --- | --- | --- | --- | --- | --- | --- | --- | --- | --- | --- | --- | --- |
| COC[C@@H](NC(C)=O)C(=O)NCc1ccccc1 [Lacosamide, 2(R)-acetamido-N-benzyl-3-methoxypropionamide, reference compound] | 4770 ng/mL | 27600 ng·h/mL | 1560 ng/mL | 23000 ng·h/mL | 1370 ng/mL | 20400 ng·h/mL | 1090 ng/mL | 15900 ng·h/mL | 9520 ng/mL | 2720 ng/mL |  |  |
| [2H]C([2H])([2H])OC[C@@H](NC(=O)C([2H])([2H])[2H])C(=O)NCc1ccccc1 [Compound 120, (R)-2-(Acetamido-d3)—N-benzyl-3-(methoxy-d3)propanamide] | 5280 ng/mL | 31300 ng·h/mL | 1690 ng/mL | 25400 ng·h/mL | 1540 ng/mL | 23100 ng·h/mL | 1180 ng/mL | 18000 ng·h/mL | 11000 ng/mL | 3200 ng/mL | higher | higher |

Reference: patent US9108902B2, “Deuterated 2-amino-3-hydroxypropanoic acid derivatives” (Concert Pharmaceuticals, Inc., priority 2008, dated 2015)
